Results taken from PubChem BioAssay (NCI).
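Cells were grown in 96-well plates and exposed to each compound for 48 hours at five concentrations; endpoints were interpolated linearly between bracketing concentrations, or set to the highest concentration if not reached. At the GI50, growth is halved. The concentration for full growth arrest is given as TGI.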

Columns and labels:
Assay in all cases: DTP human tumour cell line panel, 48 h
COLO 205 colon = tested on: COLO 205 colon
EKVX NSCLC = tested on: EKVX NSCLC
HCC-2998 colon = tested on: HCC-2998 colon
HCT-15 colon = tested on: HCT-15 colon
KM12 colon = tested on: KM12 colon
MOLT-4 leukemia = tested on: MOLT-4 leukemia
SK-MEL-2 melanoma = tested on: SK-MEL-2 melanoma
SW-620 colon = tested on: SW-620 colon
UACC-62 melanoma = tested on: UACC-62 melanoma
SN12C renal = tested on: SN12C renal

| SMILES | GI50 (COLO 205 colon) [µM] | TGI (COLO 205 colon) [µM] | GI50 (EKVX NSCLC) [µM] | TGI (EKVX NSCLC) [µM] | TGI (HCC-2998 colon) [µM] | TGI (HCT-15 colon) [µM] | GI50 (KM12 colon) [µM] | TGI (KM12 colon) [µM] | TGI (MOLT-4 leukemia) [µM] | GI50 (SK-MEL-2 melanoma) [µM] | TGI (SK-MEL-2 melanoma) [µM] | TGI (SW-620 colon) [µM] | TGI (UACC-62 melanoma) [µM] | GI50 (MOLT-4 leukemia) [µM] | GI50 (SN12C renal) [µM] | TGI (SN12C renal) [µM] | GI50 (HCC-2998 colon) [µM] | GI50 (HCT-15 colon) [µM] | GI50 (SW-620 colon) [µM] | GI50 (UACC-62 melanoma) [µM] |
| --- | --- | --- | --- | --- | --- | --- | --- | --- | --- | --- | --- | --- | --- | --- | --- | --- | --- | --- | --- | --- |
| O=C(N/N=C/c1cc(Cl)cc(Cl)c1[O-])c1ccccc1O.O=C(N/N=C/c1cc(Cl)cc(Cl)c1[O-])c1ccccc1O.[Ni+2] | 0.794 | 11.6 | 1.33 | 5.28 | 1.56 | 1.92 | 0.494 | 5.66 | 29.7 | 0.329 | 1.35 | 1.97 | 0.693 | – | – | – | – | – | – | – |
| O=C(NC1CCN(Cc2ccccc2)CC1)c1cc2nc(-c3ccc(Cl)s3)cc(C(F)(F)F)n2n1 | – | – | – | – | – | – | – | – | > 100 | – | – | – | – | > 100 | > 100 | > 100 | – | – | – | – |
| N#C[S-].[Nd+3].c1ccc(-c2ccccn2)nc1.c1ccc(-c2ccccn2)nc1.c1ccc(-c2ccccn2)nc1 | 18.6 | > 100 | 5.78 | > 100 | > 100 | > 100 | 5.62 | > 100 | – | 8.47 | 51.5 | > 100 | 28.2 | – | 5.82 | > 100 | 7.87 | 3.82 | 5.93 | 5.26 |
